Earlier results on 1 molecule are cited in patent publication US20240315940A1, “Topical Nourishing/Antimicrobial Compositions” (Laboratory Skin Care, Inc., priority 2021, published 2024).

In the series the test system is bacteria, fungi, Pseudomonas aeruginosa, Pseudomonas capacia, Staphylococcus aureus, Escherichia coli, Candida albicans, Aspergillus niger, Salmonella …. The note with it: whole genera of microorganisms.

On to `Oc1cc(Cl)ccc1Oc1ccc(Cl)cc1Cl` [triclosan], for which the effectiveness against microorganisms result is given as “effective”.
